{"source": "paper PMC6009875", "about": "“Structure–activity relationships of fraxamoside as an unusual xanthine oxidase inhibitor” (Journal of Enzyme Inhibition and Medicinal Chemistry, 2017)", "key": {"[1]": {"target": "T1, Xanthine oxidase from bovine milk (Bos taurus, UniProt P80457)", "T1 construct": "Xanthine oxidase from bovine milk (0.2 U/mg); purchased Sigma-Aldrich (St. Louis, MO); host or cells: bovine milk", "T1 sequence (P80457 whole entry)": "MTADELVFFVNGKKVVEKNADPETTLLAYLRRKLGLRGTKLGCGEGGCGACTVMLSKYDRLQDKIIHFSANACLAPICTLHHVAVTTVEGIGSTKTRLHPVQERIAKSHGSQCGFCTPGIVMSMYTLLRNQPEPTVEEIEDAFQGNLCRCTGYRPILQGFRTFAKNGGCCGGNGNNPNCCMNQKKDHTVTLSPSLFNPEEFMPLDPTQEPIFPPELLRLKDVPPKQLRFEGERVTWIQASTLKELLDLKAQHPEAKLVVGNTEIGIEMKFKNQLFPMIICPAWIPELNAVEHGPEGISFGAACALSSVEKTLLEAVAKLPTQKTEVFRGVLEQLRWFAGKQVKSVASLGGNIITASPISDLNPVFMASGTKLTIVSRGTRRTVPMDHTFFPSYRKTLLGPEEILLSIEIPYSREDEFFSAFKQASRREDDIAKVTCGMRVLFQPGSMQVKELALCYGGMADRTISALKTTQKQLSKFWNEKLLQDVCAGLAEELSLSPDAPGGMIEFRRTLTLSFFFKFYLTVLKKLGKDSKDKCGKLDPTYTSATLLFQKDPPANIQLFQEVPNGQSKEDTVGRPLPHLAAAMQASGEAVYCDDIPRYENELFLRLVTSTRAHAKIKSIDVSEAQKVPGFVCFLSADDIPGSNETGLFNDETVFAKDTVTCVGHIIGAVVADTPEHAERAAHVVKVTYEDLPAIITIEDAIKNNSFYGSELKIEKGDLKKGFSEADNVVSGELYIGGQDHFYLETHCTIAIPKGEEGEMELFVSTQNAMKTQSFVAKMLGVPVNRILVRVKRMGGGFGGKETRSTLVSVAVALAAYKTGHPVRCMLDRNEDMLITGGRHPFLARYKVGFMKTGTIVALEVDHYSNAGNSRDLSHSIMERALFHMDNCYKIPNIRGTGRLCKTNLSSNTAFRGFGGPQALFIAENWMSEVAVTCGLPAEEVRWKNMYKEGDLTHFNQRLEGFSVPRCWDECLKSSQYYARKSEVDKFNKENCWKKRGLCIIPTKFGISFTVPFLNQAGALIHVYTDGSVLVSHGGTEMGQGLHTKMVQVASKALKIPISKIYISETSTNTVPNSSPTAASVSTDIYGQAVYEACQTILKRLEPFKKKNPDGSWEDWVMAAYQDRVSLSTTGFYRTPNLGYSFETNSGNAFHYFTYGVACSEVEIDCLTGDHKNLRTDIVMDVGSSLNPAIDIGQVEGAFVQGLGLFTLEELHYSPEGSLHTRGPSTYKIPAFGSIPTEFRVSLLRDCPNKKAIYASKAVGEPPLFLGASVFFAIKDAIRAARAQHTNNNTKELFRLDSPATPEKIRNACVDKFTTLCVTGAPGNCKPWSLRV", "experiment": "XO inhibition kinetics (Lineweaver-Burk, Ki)", "type": "biochemical", "conditions": "for Inhibition mode: Lineweaver-Burk plots", "procedure": "The assay was carried out in a 500-μL final volume buffer A, constituted by 50 mM phosphate buffer, pH 7.8, 0.1 mM EDTA, supplemented with increasing concentration of xanthine as substrate in the absence or in the presence of variable amounts of the selected inhibitor. The assay was initiated by adding 10 μL of 160 U/L XO solution to the reaction mixture, without or with inhibitors, and it was followed in kinetics by reading the absorbance up to 2 min at 20 °C, thus calculating the rate of acid uric formation in the linear range of the reaction. The kinetic parameters of the XO reaction were derived from Lineweaver–Burk plots obtained measuring the rate of uric acid formation at different xanthine concentration (ranging between 0.4 and10 μM). Inhibition studies were carried out by measuring the kinetic parameters in the presence of different inhibitors. […] Km/Ki + Km.\nThe kinetic parameters of XO were determined by Lineweaver–Burk plot using a standard curve-fitting program. At each single concentration of substrate, the activity was evaluated in triplicate. […] Correlation and regression analyses and statistical analysis were made with Student’s t-test, using the software KaleidaGraph (Reading, PA). p values lower than 0.05 were considered to be significant."}, "[2]": {"target": "T1, Xanthine oxidase from bovine milk", "experiment": "XO activity assay (IC50, uric acid formation at 295 nm)", "type": "biochemical", "conditions": "total absence of methanol; 50 μM xanthine, pH 7.8, 20 °C", "procedure": "The assay was carried out in a 500 μL final volume reaction mixture, containing 50 mM phosphate buffer, pH 7.8, 0.1 mM EDTA, 50 μM xanthine as substrate, 3.2 U/L XO, and different amounts of each compound as potential XO inhibitor. The assay was started by adding 10 μL of the enzyme stock solution to the reaction mixture and followed by reading the absorbance up to 2 min at 20 °C, thus calculating the corresponding rate in the linear range of the reaction. For each sample, the extent of the inhibitory effect (i) was calculated as i = (V0 – Vi)/V0 where V0 and Vi are respectively the rate measured in the absence or presence at least six different amounts of the compounds used [I], whose range of concentration was properly chosen."}, "XO [3]": {"system": "XO", "design": "method as in Flemmig et al.[52]", "conditions": "ref Flemmig et al.[52], cited from earlier work"}, "XO [4]": {"system": "XO", "design": "method as in PMID 25102361", "conditions": "read-out: IC50 (XO inhibitory effect); cited from earlier work"}}, "note": "Read-outs that look alike come from different tables or passages of the source."}
{"smiles": "Oc1ncnc2[nH]ncc12", "note": "[Allopurinol, allopurinol, reference compound]", "values": [{"measurement": "Inhibition mode", "setting": "[1]", "value": "competitive inhibition mode"}]}
{"smiles": "C/C=C1/[C@H]2OC=C(C(=O)OC)[C@H]1CC(=O)OC[C@@H](c1ccc(O)c(O)c1)OC[C@H]1O[C@@H](O2)[C@H](O)[C@@H](O)[C@@H]1O", "note": "[Compound 1, fraxamoside]", "values": [{"measurement": "Inhibition mode", "setting": "[1]", "value": "Competitive"}, {"measurement": "Inhibition mode", "setting": "[1]; listed as fraxamoside", "value": "competitively inhibited"}, {"measurement": "Ki lower than that of oleuropein (fold)", "setting": "[1]; fraxamoside Ki versus oleuropein Ki", "value": "at least 50 times"}, {"measurement": "Ki", "setting": "[1]; secondary plot of K'm versus [I], xanthine 0.4-10 μM, pH 7.8, 20 °C", "value": "0.9 ± 0.25", "unit": "µM"}, {"measurement": "IC50", "setting": "[2]", "value": "16.1 ± 0.7", "unit": "µM"}]}
{"smiles": "C/C=C1/[C@H](O[C@@H]2O[C@H](CO)[C@@H](O)[C@H](O)[C@H]2O)OC=C(C(=O)OC)[C@H]1CC(=O)OCCc1ccc(O)c(O)c1", "note": "[Compound 2, oleuropein]", "values": [{"measurement": "Inhibition mode", "setting": "XO [3]", "value": "Competitive^a"}, {"measurement": "Inhibition mode", "setting": "XO [3]; listed as oleuropein", "value": "competitive inhibition mode"}, {"measurement": "Ki", "setting": "XO [3]; read-out: Ki", "value": 53, "unit": "µM"}, {"measurement": "IC50", "setting": "[2]", "value": "335 ± 17", "unit": "µM"}]}
{"smiles": "C/C=C1/[C@H](O[C@@H]2O[C@H](CO)[C@@H](O)[C@H](O)[C@H]2O)OC=C(C(=O)OC)[C@H]1CC(=O)O", "note": "[Compound 3, oleoside 11-methyl ester]", "values": [{"measurement": "IC50", "setting": "[2]", "value": "259 ± 13", "unit": "µM"}]}
{"smiles": "OCCc1ccc(O)c(O)c1", "note": "[Compound 4, hydroxytyrosol]", "values": [{"measurement": "Ki", "setting": "XO [3]", "value": "No inhibition^a"}, {"measurement": "IC50", "setting": "[2]", "value": "1130 ± 22", "unit": "µM"}]}
{"smiles": "O=c1c(O[C@@H]2O[C@H](CO)[C@@H](O)[C@H](O)[C@H]2O)c(-c2ccc(O)c(O)c2)oc2cc(O)cc(O)c12", "note": "[quercetin 3-O-glucoside]", "values": [{"measurement": "IC50", "setting": "XO [4]", "value": 54.6, "unit": "µM"}]}
{"smiles": "O=c1c(O)c(-c2ccc(O)c(O)c2)oc2cc(O)cc(O)c12", "note": "[quercetin]", "values": [{"measurement": "IC50", "setting": "XO [4]", "value": 1.9, "unit": "µM"}]}
